In US7250505B1, “Isolation and expression of a disabled protein gene mDab1 and methods” (Fred Hutchinson Cancer Research Center, priority 1997, dated 2007):
Values belong to the compound of their own block, whether it stands above or below them. No end group written: not given here.

Experiments:
mDab1 PTB [1] = target: T1, mDab1 PTB (Mus musculus, UniProt P97318); assay: GST-mDab1 PTB binding of tyrosine phosphorylated proteins from E13 mouse head lysates in the presence of phosphoamino acid competitors; settings: competitor in binding buffer (50 mM)
T1 construct: the region corresponding to the mDab1 PTB, residues 29 to 197; made in house; host or cells: Escherichia coli strain TG-1
T1 sequence (P97318 29-197): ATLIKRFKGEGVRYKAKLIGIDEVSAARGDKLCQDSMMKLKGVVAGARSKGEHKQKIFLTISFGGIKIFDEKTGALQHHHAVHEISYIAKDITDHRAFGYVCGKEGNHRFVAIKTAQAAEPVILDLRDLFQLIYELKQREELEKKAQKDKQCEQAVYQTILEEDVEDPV
Experimental: Lysates from 293T cells transfected with retroviral vectors encoding mDab555 alone; Src 527F alone; Src527F and mDab555 together; or Src527F and mDab1 98/200F, which is described in more detail below, were either bound to immobilized GST fusions proteins or were immunoprecipitated with anti-mDab1 or preimmune antibodies. Binding assays and analysis were carried out essentially as described for immunoprecipitations with 5 μg of GST fusion protein immobilized on glutathione agarose beads. Phenyl phosphate and phosphoserine were used at 50 mM for competition experiments. After washing, mDab1 bound to the immobilized SH2 domains was detected by immunoblotting. […] The Abl and Csk SH2 domains do form high affinity complexes with other tyrosine phosphorylated molecules however (Sabe et al., Proc. Natl. Acad. Sci. USA 91:3984-3988 (1994); Duyster et al., ibid. (1995)).
To examine whether the mDab1 PTB binds proteins that are tyrosine phosphorylated during neural development, a GST fusion protein containing the mDab1 PTB, a mutant mDab1 PTB in which Arg 56 was changed to Glu (mDab1 56E) or GST alone. was incubated with lysates from E13 mouse heads. Bound proteins were eluted, resolved and immunoblotted with anti-phosphotyrosine antibodies. The mDab1 PTB bound tyrosine phosphorylated proteins of 200, 120, 50-65 and 40 kDa.
To test whether the binding of proteins to the mDab1 PTB is phosphotyrosine dependent, binding experiments were done in the presence of the phosphotyrosine analog phenylphosphate. The assays was conducted as described above and phenylphosphate or phosphoserine were included in the binding buffer to investigate binding specificity. Proteins were eluted and analyzed as described above. […] However the binding of the 50-65 kDa proteins was not affected by either competitor.

mDab1 PTB domain = target: T2, mDab1 PTB domain (Mus musculus, UniProt P97318); assay: Binding of radioactively labeled GST-mDab1 PTB domain fusion protein to synthetic peptides in a grid array on cellulose; settings: 15 to 17 residue peptides with NPXY motifs on cellulose sheet
T2 construct: the region corresponding to the mDab1 PTB, residues 29 to 197; made in house; host or cells: Escherichia coli strain TG-1
T2 sequence (P97318 29-197): T1 sequence (P97318 29-197)
Experimental: The ability of the mDab1 PTB domain to interact directly with synthetic peptides based on the sequences identified in the two-hybrid screen was tested to identify the optimal sequence for mDab1 PTB domain binding. […] The purified, radioactive fusion protein was then incubated with a sheet of cellulose paper onto which different 15 to 17 residue synthetic peptides had been synthesized in a grid array (Niebuhr, et al., EMBO J. 16:5433-5444 (1997), incorporated herein by reference). Each sheet contained up to 100 different peptide sequences. After incubation, the sheet was washed and exposed to film, and bound PTB domain fusion protein was quantified. […] The mDab1 PTB domain was tested against peptides containing NPXY motifs from APP, the APP relatives APLP1 and APLP2, LRP, the LRP-related LDL receptor, Ship, and known ligands for the Shc and IRS-1 PTB domains, namely the EGF receptor, HER3 receptor, NGF receptor (TrkA), and insulin receptor. The mDab1 PTB domain was also tested against peptide motifs with phosphotyrosine in place of the tyrosine of the NPXY sequence (i.e. NPXpY peptides). The amount of radioactivity associated with each peptide was quantified with a PhosphorImager (Molecular Dynamics), and depicted as a percentage of that which associated with the APP peptide.
To determine which residues in the APP sequence are involved in the interaction with the mDab1 PTB, an array of peptides based on the APP sequence with alanine substituted at each position in turn were synthesized. The ability of each peptide to bind to the PTB domain was compared to wild-type. […] Only the side chains of residues on the amino-terminal side of the NPXY motif appear to influence the strength of the interaction.
To determine the features of the APP peptide that were recognized by the mDab1 PTB domain, all nineteen amino acids, except cysteine, were substituted at several positions. In all cases the mDab1 PTB domain bound better to the wild-type APP sequence than to any altered sequence. Most substitutions of residues Gly-6, Tyr-5, Asn-3, Pro-2 and Tyr-0 inhibited PTB domain binding by greater than 80%. […] For example, the significant binding of the p150 Ship, LRP, and LDL receptor peptides implies that replacement of Tyr-5 with phenylalanine is permitted provided other changes are also made.

mDab1 PTB [2] = target: T1, mDab1 PTB; assay: Competition of GST-mDab1 PTB binding to LUVs containing PtdIns4,5P2 by inositol phosphates
Experimental: GST fusion proteins containing the Shc or mDab1 PTB domain were compared for their ability to bind LUVs that contained phosphotidylisositol 4,5 P2 (PtdIns4,5P2), phosphatidylserine (PtdSer) and phosphatidylethanolamine (PtdEth). Methods for the production of LUVs and assays for binding to Shc phosphotyrosine-binding domains can found in Ravichandran, et al., Mol. Cell. Biol. 17:5540-5549 (1997) which is incorporated herein by reference. After the fusion proteins and a GST control were incubated with the LUVs the reactions were centrifuged and the presence of the fusion proteins were detected by SDS PAGE and Western blotting with antibodies to GST as described above. GST-Shc PTB and GST-mDab1 PTB fusion proteins were found in the high speed pellet fraction in the presence of but not in the absence of LUVs. While the GST fusion protein control was found in the high speed supernatant in the presence of absence of the LUVs.
The specificity of mDab1 PTB binding to phospholipids was also determined. For these studies LUVs were prepared containing equal quantities of PtdSer, phosphatidylcholine (PtdCho) and Ptd Eth, and 0 or 5% by weight of PtdIns4P, PtdIns4,5P2, or PdtIns3,4,5P3. This corresponded to approximately 7.5 μM phosphoinositide in the outer leaflet of the lipid bilayer. Detection of binding to the LUVs was determined as described above.
mDab1 PTB binding to LUVs containing phosphoinositides in the presence of various phosphorylated isomers of inositol was also examined to determine whether the binding of mDab1 PTB to phosphoinositides was specific or was the result of a strong affinity for strongly anionic phospholipids. […] Binding was competed with D-Ins1,4,5P3, but not by L-Ins1, 4,5P3.

- binding of the 50-65 kDa proteins to mDab1 PTB in presence of competitor (mDab1 PTB [1]): not affected
- binding of the 120 and 40 kDa phosphotyrosyl proteins to mDab1 PTB in presence of competitor (mDab1 PTB [1]): to a less extent
Compound: N[C@@H](COP(=O)(O)O)C(=O)O [phosphoserine]

- binding of mDab1 PTB domain to peptide (mDab1 PTB domain): better than the other
Compound: MFENPLY [SEQ ID NO:30]

- binding of mDab1 PTB domain to peptide (mDab1 PTB domain): failed to interact
Compound: IIENPQY [SEQ ID NO:33]

- competition of GST-mDab1 PTB binding to LUVs containing PtdIns4,5P2 (mDab1 PTB [2]; competitor at 30 μM): weak competition
- competition of GST-mDab1 PTB binding to LUVs containing PtdIns4,5P2 (mDab1 PTB [2]; competitor at 100 μM): competed
Compound: O=P(O)(O)O[C@@H]1[C@H](O)[C@H](O)[C@@H](OP(=O)(O)O)[C@H](OP(=O)(O)O)[C@H]1O [D-Ins1,4,5P3]

- binding of mDab1 PTB domain to peptide (mDab1 PTB domain): failed to interact
Compound: NVGNPEY [SEQ ID NO:32]

- binding of mDab1 PTB domain to peptide (mDab1 PTB domain): bound
Compound: NFTNPVY [SEQ ID NO:28, peptide with the more carboxy-terminal NPXY motif of LRP]

- binding of mDab1 PTB domain to peptide (mDab1 PTB domain): bound
Compound: NFDNPVY [SEQ ID NO:29]

Compound: O=P(O)(O)Oc1ccccc1 [phenylphosphate]
- binding of the 50-65 kDa proteins to mDab1 PTB in presence of competitor (mDab1 PTB [1]): not affected
- binding of the 120 and 40 kDa phosphotyrosyl proteins to mDab1 PTB in presence of competitor (mDab1 PTB [1]): reduced significantly

- binding of mDab1 PTB domain to peptide (mDab1 PTB domain): failed to interact
Compound: NSSNPEY [SEQ ID NO:34]

- competition of GST-mDab1 PTB binding to LUVs containing PtdIns4,5P2 (mDab1 PTB [2]; competitor at 100 μM): not
Compound: O=P(O)(O)O[C@@H]1[C@@H](O)[C@H](OP(=O)(O)O)[C@@H](OP(=O)(O)O)[C@H](O)[C@@H]1O [L-Ins1, 4,5P3]
